From the supplement of paper PMC12420376

Tests used:
[1] = system: KURAMOCHI; assay: drug sensitivity score (DSS2) on cancer cell count; higher = more sensitive; extreme values may be limits of the assay; conditions: 72 h
In short: (§1)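 Ovarian cancer cells were cultured either alone or directly mixed 1:1 with lung or skin fibroblasts and plated onto 384-well plates acoustically pre-spotted with 528 approved and investigational compounds at 5 concentrations for 72 h of treatment. After fixation, cells were immunostained for CK8/18 with Hoechst and imaged at 10× across 4 fields to count cancer cells. Responses were fitted with 4-parameter logistic curves, and from these fits a drug sensitivity score was derived in Breeze, with screen quality assessed by Z'.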

[2] = system: OVCAR8; assay: as above; conditions: 72 h
In short: as §1

[3] = co-cultured fibroblast: BJHTERT
[4] = co-cultured fibroblast: none (monoculture)

Row | SMILES | drug sensitivity score [1, 3] [DSS] | drug sensitivity score ([1]; co-cultured fibroblast: WI38) [DSS] | drug sensitivity score [1, 4] [DSS] | drug sensitivity score [2, 3] [DSS] | drug sensitivity score ([2]; co-cultured fibroblast: WI38) [DSS] | drug sensitivity score [2, 4] [DSS]
1 | O=C(CCCCCCC(=O)Nc1ccc([C@H]2O[C@@H](CSc3nc(-c4ccccc4)c(-c4ccccc4)o3)C[C@@H](c3ccc(CO)cc3)O2)cc1)NO [Tubacin] | 1.1 | 6.7 | 7 | 5 | 1.5 | 6.2
2 | CN1CCc2c(c3ccccc3n2Cc2ccc(C(=O)NO)cc2)C1 [Tubastatin A] | 0 | 3.3 | 4.6 | 0 | 4.3 | 5.2
3 | Cc1cc(Nc2ncnc3ccc(NC4=NC(C)(C)CO4)cc23)ccc1Oc1ccn2ncnc2c1 [Tucatinib] | 2.9 | 0 | 2.5 | 0 | 0 | 0
4 | Nc1cc(F)ccc1NC(=O)c1ccc(CNC(=O)/C=C/c2cccnc2)cc1 [Tucidinostat] | 7.6 | 11.2 | 9.7 | 8 | 4.4 | 11.8
5 | CN[C@@H]1C[C@H]2O[C@@](C)([C@@H]1OC)n1c3ccccc3c3c4c(c5c6ccccc6n2c5c31)C(=O)N[C@H]4O [UCN-01] | 17 | 17.3 | 22.7 | 19.6 | 14.3 | 17.7
6 | COC(=O)c1ccc2c(c1)[nH]c1ncnc(NCCCN3CCCCC3)c12 [UM729] | 1.1 | 0 | 4.1 | 6.9 | 1.1 | 3.5
7 | COc1cc2c(NC3CCN(C(C)C)CC3)nc(C3CCCCC3)nc2cc1OCCCN1CCCC1 [UNC0638] | 4.4 | 1.8 | 0 | 7.1 | 0 | 0.1
8 | COc1cc2c(NC3CCN(C(C)C)CC3)nc(N3CCC(F)(F)CC3)nc2cc1OCCCN1CCCC1 [UNC0642] | 1.5 | 0.7 | 0.1 | 8 | 0 | 2.2
9 | O=C(c1ccc(C(=O)N2CCC(N3CCCC3)CC2)c(Nc2ccccc2)c1)N1CCC(N2CCCC2)CC1 [UNC1215] | 0 | 0 | 0 | 0 | 0 | 0
10 | CCCCNc1ncc(C(=O)NCc2ccc(-n3ccnc3)cc2)c(NC2CCC(O)CC2)n1 (centres undefined) [UNC2881] | 2.4 | 3 | 0.4 | 0.2 | 1.1 | 0
11 | NC(=O)c1cccc(-c2cccc(OC(=O)NC3CCCCC3)c2)c1 [URB597] | 0 | 0 | 0 | 0 | 0 | 0
12 | CC(C)Nc1cc(-c2c[nH]c(C(=O)N[C@H](CO)c3cccc(Cl)c3)c2)c(Cl)cn1 [Ulixertinib] | 9.7 | 9.6 | 12.2 | 8.8 | 13.9 | 11
13 | Cn1ncc(Cl)c1-c1cc(C(=O)N[C@H](CN)Cc2ccc(F)c(F)c2)oc1Cl [Uprosertib] | 0.5 | 4.4 | 2 | 0.6 | 0 | 0.1
14 | CS(=O)(=O)c1ccc(-c2cnc(N)c(C(=O)Nc3ccccc3)n2)cc1 [VE-821] | 0 | 0 | 0 | 3.1 | 0 | 0
15 | O=C(O)CC1CC(c2ccccc2)=NO1 (centres undefined) [VGX-1027] | 0 | 0 | 0 | 0.3 | 0 | 0
16 | C=CC(=O)N1CC/C(=C\c2ccc(F)c([N+](=O)[O-])c2)C(=O)/C(=C/c2ccc(F)c([N+](=O)[O-])c2)C1 [VLX1570] | 27.4 | 24.7 | 29 | 24.8 | 31.1 | 31.7
17 | CNC(=O)c1ccccc1Nc1cc(Nc2ccc(N3CCOCC3)cc2OC)ncc1C(F)(F)F [VS-4718] | 9 | 7.9 | 14.2 | 6.7 | 3.5 | 8.5
18 | CCCC(CCC)C(=O)O [Valproic acid] | 0 | 0 | 0 | 0 | 0 | 0
19 | CCCCC(=O)OCC(=O)[C@]1(O)Cc2c(O)c3c(c(O)c2[C@@H](O[C@H]2C[C@H](NC(=O)C(F)(F)F)[C@H](O)[C@H](C)O2)C1)C(=O)c1c(OC)cccc1C3=O [Valrubicin] | 19.7 | 17.1 | 24.1 | 17.6 | 15.3 | 18.4
20 | COc1cc2/c(=N/c3ccc(Br)cc3F)nc[nH]c2cc1OCC1CCN(C)CC1 [Vandetanib] | 0 | 2.6 | 10.6 | 0 | 0 | 2.1

Row | SMILES | drug sensitivity score [1, 3] [DSS] | drug sensitivity score ([1]; co-cultured fibroblast: WI38) [DSS] | drug sensitivity score [1, 4] [DSS] | drug sensitivity score [2, 3] [DSS] | drug sensitivity score ([2]; co-cultured fibroblast: WI38) [DSS] | drug sensitivity score [2, 4] [DSS]
21 | CCc1c(C(=O)C(N)=O)c2c(OCC(=O)O)cccc2n1Cc1ccccc1 [Varespladib] | 0 | 0 | 0 | 0 | 0 | 3.4
22 | C[C@@H]1COC(Nc2ccc3ncnc(Nc4ccc(OCc5nccs5)c(Cl)c4)c3c2)=N1 [Varlitinib] | 1.5 | 2.1 | 0 | 0 | 2 | 1.4
23 | Clc1ccc(Nc2nnc(Cc3ccncc3)c3ccccc23)cc1 [Vatalanib] | 0 | 0.7 | 0 | 0.2 | 0 | 0
24 | C[C@]1(c2nc3c(C(N)=O)cccc3[nH]2)CCCN1 [Veliparib] | 0.4 | 0 | 0 | 5 | 3.1 | 0.5
25 | CCCS(=O)(=O)Nc1ccc(F)c(C(=O)c2c[nH]c3ncc(-c4ccc(Cl)cc4)cc23)c1F [Vemurafenib] | 0 | 0 | 0.8 | 0 | 1.1 | 1.3
26 | CC1(C)CCC(CN2CCN(c3ccc(C(=O)NS(=O)(=O)c4ccc(NCC5CCOCC5)c([N+](=O)[O-])c4)c(Oc4cnc5[nH]ccc5c4)c3)CC2)=C(c2ccc(Cl)cc2)C1 [Venetoclax] | 0 | 0 | 0 | 0 | 0 | 2.3
27 | O=C(/C=C\n1cnc(-c2cc(C(F)(F)F)cc(C(F)(F)F)c2)n1)NNc1ccccn1 [Verdinexor] | 8.4 | 9.1 | 16.7 | 10.2 | 7.1 | 16.6
28 | CCCCOc1nc(N)c2c(n1)N(Cc1cccc(CN3CCCC3)c1)CC(=O)N2 [Vesatolimod] | 2.9 | 0 | 0 | 0.4 | 0 | 0
29 | COc1cccc(-c2ccc(NC(=O)C3=C(C(=O)O)CCC3)c(F)c2)c1 [Vidofludimus] | 1.5 | 0.4 | 1.9 | 0 | 1.6 | 2
30 | CC[C@]1(O)C[C@@H]2CN(CCc3c([nH]c4ccccc34)[C@@](C(=O)OC)(c3cc4c(cc3OC)N(C)[C@H]3[C@@](O)(C(=O)OC)[C@H](OC(C)=O)[C@]5(CC)C=CCN6CC[C@]43[C@@H]65)C2)C1 [Vinblastine] | 4.9 | 4.2 | 20.8 | 18.9 | 5.2 | 15.7
31 | CC[C@]1(O)C[C@H]2CN(CCc3c([nH]c4ccccc34)[C@@](C(=O)OC)(c3cc4c(cc3OC)N(C=O)[C@H]3[C@@](O)(C(=O)OC)[C@H](OC(C)=O)[C@]5(CC)C=CCN6CC[C@]43[C@@H]65)C2)C1 [Vincristine] | 7.5 | 5 | 23.4 | 11.5 | 9.3 | 11.9
32 | CC[C@]12C=CCN3CC[C@@]4(c5cc([C@@]6(C(=O)OC)C[C@@H]7C[C@@H](C(C)(F)F)CN(Cc8c6[nH]c6ccccc86)C7)c(OC)cc5N(C)[C@H]4[C@@](O)(C(=O)OC)[C@@H]1OC(C)=O)[C@@H]32 [Vinflunine] | 3.1 | 7 | 7.9 | 6.9 | 3.7 | 3.9
33 | CCC1=C[C@@H]2CN(C1)Cc1c([nH]c3ccccc13)[C@@](C(=O)OC)(c1cc3c(cc1OC)N(C)[C@H]1[C@@](O)(C(=O)OC)[C@H](OC(C)=O)[C@]4(CC)C=CCN5CC[C@]31[C@@H]54)C2 [Vinorelbine] | 29.3 | 25.7 | 25.6 | 38.8 | 33 | 29.3
34 | CS(=O)(=O)c1ccc(C(=O)Nc2ccc(Cl)c(-c3ccccn3)c2)c(Cl)c1 [Vismodegib] | 0 | 0 | 0 | 0 | 6.8 | 0
35 | CNC(=O)c1cccc(-c2ccc3c(N4CCOC[C@@H]4C)nc(N4CCOC[C@@H]4C)nc3n2)c1 [Vistusertib] | 10.6 | 8.3 | 7.5 | 13.1 | 7.6 | 16.1
36 | CC[C@@H]1C(=O)N(C)c2cnc(Nc3ccc(C(=O)N[C@H]4CC[C@H](N5CCN(CC6CC6)CC5)CC4)cc3OC)nc2N1C(C)C [Volasertib] | 16.4 | 17.9 | 21.4 | 26.5 | 21.5 | 24.7
37 | O=C(CCCCCCC(=O)Nc1ccccc1)NO [Vorinostat] | 9.5 | 9.7 | 5.5 | 17.1 | 22.8 | 9.4
38 | Oc1nc(-c2ccc(C(F)(F)F)cc2)nc2c1CSCC2 [XAV-939] | 1.1 | 0 | 0.5 | 0.6 | 0.1 | 0.3
39 | FC(F)c1nc2ccccc2n1-c1nc(N2CCOCC2)nc(N2CCOCC2)n1 [ZSTK474] | 15 | 12.7 | 10.9 | 5.3 | 0 | 9.8
